Test: Solubility of topiramate in the first organic solvent (xylene, toluene)
Assay type: physicochemical
Experimental: It was further observed that the yield during the precipitation step can be improved when using xylene instead of toluene in the present invention. This is attributed to the fact that topiramate is less soluble in xylene compared to toluene. The solubility of topiramate in xylene was detected to be 0.0025 mg per mg xylene whereas the solubility of topiramate in toluene is 0.008 mg per mg solvent. Therefore, when using xylene as the first solvent in the present invention, the loss of topiramate in the mother liquid can be reduced.

solubility of topiramate in toluene (solvent toluene): 0.008 mg per mg solvent
solubility of topiramate in xylene (solvent xylene): 0.0025 mg per mg xylene
Structure (SMILES): CC1(C)O[C@@H]2[C@@H](CO[C@@]3(COS(N)(=O)=O)OC(C)(C)O[C@@H]23)O1 [topiramate, 2,3:4,5-bis-O-(1-methylethylidene)-β-D-fructopyranose sulfamate]

Reference: patent US8748594B2, “Process for the preparation and purification of topiramate” (Scinopharm Taiwan, Ltd., priority 2010, dated 2014)
